Source: the supplement of paper PMC11061612

Key:
[1] = system: NCI-H64 (Small Cell Lung Carcinoma); experiment: combination Emax (second highest fraction inhibited in the dose matrix, 72 h); higher = more inhibition; extreme values may be limits of the assay
In short: (§1)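 Bliss excess equals the observed combination effect minus the expected value EA + EB − EA·EB, where EA and EB are the effects of each agent alone. Combination Emax is the second-highest inhibition within the matrix. Inhibition was scaled from CellTiter-Glo 2.0 luminescence, with 0 set by vehicle wells and 1 by blank wells, after 72 hours of two-drug dosing of cells plated in 1536-well plates.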

[2] = system: ECC10 (Gastric Carcinoma); experiment: as above
In short: as §1

[3] = system: KARPAS-422 (B-Cell Non-Hodgkin's Lymphoma); experiment: as above
In short: as §1

NY (Osteosarcoma) [4] = experiment: as above
In short: as §1

U-2-OS (Osteosarcoma) [5] = experiment: as above
In short: as §1

[6] = system: ONS-76 (Other Solid Carcinomas); experiment: as above
In short: as §1

[7] = system: TT (Thyroid Gland Carcinoma); experiment: as above
In short: as §1

[8] = system: COLO-320-HSR (Colorectal Carcinoma); experiment: as above
In short: as §1

FU97 (Gastric Carcinoma) [9] = experiment: as above
In short: as §1

[10] = system: CCK-81 (Colorectal Carcinoma); experiment: as above
In short: as §1

IGR-37 (Melanoma) [11] = experiment: as above
In short: as §1

[12] = system: PANC-10-05 (Pancreatic Carcinoma); experiment: as above
In short: as §1

[13] = system: NCI-H1666 (Lung Adenocarcinoma); experiment: as above
In short: as §1

[14] = system: NCI-H2066 (Squamous Cell Lung Carcinoma); experiment: as above
In short: as §1

[15] = system: NCI-H1581 (Non-Small Cell Lung Carcinoma); experiment: as above
In short: as §1

[16] = system: CAPAN-2 (Pancreatic Carcinoma); experiment: as above
In short: as §1

[17] = system: VCaP (Prostate Carcinoma); experiment: as above
In short: as §1

[18] = system: NCI-H64 (Small Cell Lung Carcinoma); experiment: Bliss excess, mean over the matrix (fraction); higher = more synergy
In short: as §1

[19] = system: ECC10 (Gastric Carcinoma); experiment: as above
In short: as §1

[20] = system: KARPAS-422 (B-Cell Non-Hodgkin's Lymphoma); experiment: as above
In short: as §1

NY (Osteosarcoma) [21] = experiment: as above
In short: as §1

U-2-OS (Osteosarcoma) [22] = experiment: as above
In short: as §1

[23] = system: ONS-76 (Other Solid Carcinomas); experiment: as above
In short: as §1

[24] = system: TT (Thyroid Gland Carcinoma); experiment: as above
In short: as §1

[25] = system: COLO-320-HSR (Colorectal Carcinoma); experiment: as above
In short: as §1

FU97 (Gastric Carcinoma) [26] = experiment: as above
In short: as §1

[27] = system: CCK-81 (Colorectal Carcinoma); experiment: as above
In short: as §1

IGR-37 (Melanoma) [28] = experiment: as above
In short: as §1

[29] = system: PANC-10-05 (Pancreatic Carcinoma); experiment: as above
In short: as §1

[30] = system: NCI-H1666 (Lung Adenocarcinoma); experiment: as above
In short: as §1

[31] = system: NCI-H2066 (Squamous Cell Lung Carcinoma); experiment: as above
In short: as §1

[32] = system: NCI-H1581 (Non-Small Cell Lung Carcinoma); experiment: as above
In short: as §1

[33] = system: CAPAN-2 (Pancreatic Carcinoma); experiment: as above
In short: as §1

[34] = system: VCaP (Prostate Carcinoma); experiment: as above
In short: as §1

[35] = system: BICR22 (Oral Cavity Carcinoma); experiment: combination Emax (second highest fraction inhibited in the dose matrix, 72 h); higher = more inhibition; extreme values may be limits of the assay
In short: as §1

[36] = system: BICR22 (Oral Cavity Carcinoma); experiment: Bliss excess, mean over the matrix (fraction); higher = more synergy
In short: as §1

| SMILES | combination Emax [1] | combination Emax [2] | combination Emax [3] | combination Emax (NY (Osteosarcoma) [4]) | combination Emax (U-2-OS (Osteosarcoma) [5]) | combination Emax [6] | combination Emax [7] | combination Emax [8] | combination Emax (FU97 (Gastric Carcinoma) [9]) | combination Emax [10] | combination Emax (IGR-37 (Melanoma) [11]) | combination Emax [12] | combination Emax [13] | combination Emax [14] | combination Emax [15] | combination Emax [16] | combination Emax [17] | Bliss excess [18] | Bliss excess [19] | Bliss excess [20] | Bliss excess (NY (Osteosarcoma) [21]) | Bliss excess (U-2-OS (Osteosarcoma) [22]) | Bliss excess [23] | Bliss excess [24] | Bliss excess [25] | Bliss excess (FU97 (Gastric Carcinoma) [26]) | Bliss excess [27] | Bliss excess (IGR-37 (Melanoma) [28]) | Bliss excess [29] | Bliss excess [30] | Bliss excess [31] | Bliss excess [32] | Bliss excess [33] | Bliss excess [34] | combination Emax [35] | Bliss excess [36] |
| --- | --- | --- | --- | --- | --- | --- | --- | --- | --- | --- | --- | --- | --- | --- | --- | --- | --- | --- | --- | --- | --- | --- | --- | --- | --- | --- | --- | --- | --- | --- | --- | --- | --- | --- | --- | --- |
| C=CCn1c(=O)c2cnc(Nc3ccc(N4CCN(C)CC4)cc3)nc2n1-c1cccc(C(C)(C)O)n1 [AZD1775] + CCc1c2c(nc3ccc(O)cc13)-c1cc3c(c(=O)n1C2)COC(=O)[C@]3(O)CC [SN-38] (first compound max 1 µM, partner max 0.3 µM) | 0.887 | 0.995 | 0.953 | 0.902 | 0.588 | 0.835 | 0.941 | 0.756 | 0.391 | 0.845 | 0.823 | 0.851 | 0.539 | 0.304 | 0.965 | 0.415 | 0.67 | -0.017 | -0.0663 | -0.0699 | -0.0575 | -0.0179 | -0.0392 | -0.0838 | -0.0294 | -0.0007 | -0.0839 | -0.107 | -0.029 | -0.0452 | -0.0821 | 0.0811 | -0.0501 | -0.108 | – | – |
| C=CCn1c(=O)c2cnc(Nc3ccc(N4CCN(C)CC4)cc3)nc2n1-c1cccc(C(C)(C)O)n1 [AZD1775] + Nc1ccn([C@@H]2O[C@H](CO)[C@@H](O)C2(F)F)c(=O)n1 [Gemcitabine] (first compound max 1 µM, partner max 0.3 µM) | 0.905 | 0.821 | 0.847 | 0.7 | 0.724 | 0.559 | 0.486 | 0.811 | 0.362 | 0.81 | 0.674 | 0.631 | 0.46 | 0.217 | 0.948 | 0.43 | 0.839 | -0.0098 | 0.0012 | -0.0482 | -0.0595 | 0.029 | -0.0804 | -0.0228 | 0.0066 | -0.0313 | -0.0665 | -0.0346 | -0.0504 | -0.0561 | -0.0678 | 0.124 | -0.065 | -0.0094 | 0.943 | -0.0077 |
| CN(CCO)CC[C@H](CSc1ccccc1)Nc1ccc(S(=O)(=O)NC(=O)c2ccc(N3CCC([C@@H](O)c4ccccc4-c4ccc(Cl)cc4)CC3)cc2)cc1S(=O)(=O)C(F)(F)F [AZD4320] + CC(=O)O[C@H]1C(=O)[C@@]2(C)[C@H]([C@H](OC(=O)c3ccccc3)[C@]3(O)C[C@H](OC(=O)[C@H](O)[C@@H](NC(=O)c4ccccc4)c4ccccc4)C(C)=C1C3(C)C)[C@]1(OC(C)=O)CO[C@@H]1C[C@@H]2O [Paclitaxel] (first compound max 1 µM, 7x7, partner max 3 µM) | 1 | 1 | 0.999 | 0.981 | 0.922 | 0.919 | 0.665 | 0.791 | 0.433 | 1 | 0.938 | 0.64 | 0.841 | 0.856 | 0.99 | 0.853 | 0.881 | 0.237 | 0.0272 | 0.141 | -0.0067 | 0.0272 | 0.0661 | 0.184 | 0.0041 | 0.101 | -0.0433 | -0.0174 | -0.0275 | 0.112 | 0.124 | 0.0126 | 0.0494 | 0.0175 | 0.981 | -0.0024 |
| CN(CCO)CC[C@H](CSc1ccccc1)Nc1ccc(S(=O)(=O)NC(=O)c2ccc(N3CCC([C@@H](O)c4ccccc4-c4ccc(Cl)cc4)CC3)cc2)cc1S(=O)(=O)C(F)(F)F [AZD4320] + CS(=O)(=O)CCNCc1ccc(-c2ccc3ncnc(Nc4ccc(OCc5cccc(F)c5)c(Cl)c4)c3c2)o1 [Lapatinib] (first compound max 1 µM, 7x7, partner max 10 µM) | 0.995 | 1 | 0.985 | 0.564 | 0.571 | 0.839 | 0.363 | 0.261 | – | 1 | 0.282 | 0.72 | – | 0.917 | 0.398 | 0.947 | 0.434 | 0.0352 | 0.0318 | 0.0596 | 0.0035 | 0.0382 | 0.0068 | 0.012 | -0.0638 | -0.0253 | 0.0767 | -0.0519 | -0.021 | 0.0943 | -0.0109 | -0.0047 | 0.0523 | 0.0003 | 0.958 | 0.0806 |
| CN(CCO)CC[C@H](CSc1ccccc1)Nc1ccc(S(=O)(=O)NC(=O)c2ccc(N3CCC([C@@H](O)c4ccccc4-c4ccc(Cl)cc4)CC3)cc2)cc1S(=O)(=O)C(F)(F)F [AZD4320] + Nc1ccn([C@@H]2O[C@H](CO)[C@@H](O)C2(F)F)c(=O)n1 [Gemcitabine] (first compound max 1 µM, 7x7, partner max 0.3 µM) | 0.998 | 1 | 0.97 | 0.966 | 0.501 | 0.724 | 0.615 | 0.569 | 0.349 | 0.589 | 0.872 | 0.582 | 0.501 | 0.338 | 0.482 | 0.586 | 0.547 | 0.0845 | 0.0147 | 0.067 | 0.0595 | 0.0048 | 0.003 | 0.0159 | -0.078 | 0.0132 | -0.0153 | 0.0268 | 0.0148 | -0.0121 | -0.0764 | 0.0326 | -0.0009 | -0.0098 | 0.95 | -0.0171 |
| C[C@@H]1COCCN1c1cc(C2([S@](C)(=N)=O)CC2)nc(-c2ccnc3[nH]ccc23)n1 [AZD6738] + Nc1ccn([C@@H]2O[C@H](CO)[C@@H](O)C2(F)F)c(=O)n1 [Gemcitabine] (first compound max 10 µM, 7x7, partner max 0.3 µM) | 0.936 | 0.866 | 0.749 | 0.777 | 0.83 | 0.817 | 0.526 | 0.852 | 0.398 | 0.888 | 0.794 | 0.631 | 0.553 | 0.368 | 0.975 | 0.313 | 0.837 | 0.0857 | – | -0.0523 | 0.0071 | 0.107 | -0.0644 | 0.0446 | 0.0818 | 0.0306 | 0.0606 | -0.0837 | 0.0682 | -0.0247 | -0.0525 | 0.128 | 0.018 | 0.0509 | 0.958 | -0.007 |
| N#Cc1cnc(Nc2cc(NC[C@H]3CNCCO3)c(C(F)(F)F)cn2)cn1 [SRA737] + CCc1c2c(nc3ccc(O)cc13)-c1cc3c(c(=O)n1C2)COC(=O)[C@]3(O)CC [SN-38] (first compound max 10 µM, 7x7, partner max 0.3 µM) | 0.818 | 0.973 | 0.91 | 0.928 | 0.61 | 0.876 | 0.883 | 0.657 | 0.408 | 0.78 | 0.818 | 0.86 | – | 0.345 | 0.86 | 0.25 | 0.59 | -0.0347 | -0.0016 | 0.0019 | -0.0729 | -0.0473 | -0.0554 | -0.0712 | 0.112 | -0.0739 | -0.067 | -0.111 | -0.006 | -0.0679 | -0.0192 | 0.135 | -0.0041 | -0.0295 | 0.893 | -0.0185 |
